From patent US20140066365A1, “USE OF CALIXARENES ASSOCIATED WITH AN ANTIBIOTIC IN THE TREATMENT OF BACTERIAL INFECTIONS” (priority 2011, published 2014)
Values after ≈ are worked out from the molar mass of the structure shown. Read-outs that look alike come from different tables or passages of the source.

What was measured:
Type in all cases: cell-based
[1] = tested on: Pseudomonas aeruginosa strain PaR2; assay: microbe, parasite or virus in culture; details: Pseudomonas aeruginosa, antibiotic alone (second value of cell), read-out: MIC
Excerpt: (§1) The MICs of the antibiotics were previously defined for each strain, by the method of microdilution in a liquid medium (CLSI (Clinical and Laboratory Standards Institute), 2003).

[2] = tested on: PaR5: Pseudomonas aeruginosa; assay: Antibiogram by the disk diffusion technique; details: for Diameter / Results / CA-SFM Interpretation / CLSI Interpretation / EUCAST Interpretation: PaR5; for Diameter / Results: Table I1; for Results: against Dmin-Dmax; for diameter in mm: disk diffusion inhibition diameter, strain PaR5; for CA-SFM Interpretation / CLSI Interpretation / EUCAST Interpretation: disk diffusion; for CA-SFM Interpretation: versus critical diameter CA-SFM 2011; for CLSI Interpretation: versus critical diameter CLSI 2011; for EUCAST Interpretation: versus critical diameter EUCAST 2011, for ** antibiotics the disk load differs and the EUCAST interpretation is not applicable
Protocol: (§2) The bacterial and antibiogramidentification is carried out by the VITEK 2 system (bioMérieux) and by the disk diffusion technique

[3] = tested on: EcR2: Cephalosporinase-Hyperproducing Strain of Escherichia coli; assay: Antibiogram by the disk diffusion technique; details: for Results: EcR2, rows that print a diameter; for CA-SFM Interpretation / CLSI Interpretation / EUCAST Interpretation: from diameter; for CA-SFM Interpretation: CA-SFM 2011; for CLSI Interpretation: CLSI 2011; for EUCAST Interpretation: EUCAST 2011
Protocol: The bacterial and antibiogramidentification is carried out by the VITEK 1 system (bioMérieux) and by the disk diffusion technique

[4] = tested on: PaR2: Pseudomonas aeruginosa; details: for CA-SFM Interpretation: Cd CA-SFM 2011; for CLSI Interpretation: Cd CLSI 2011; for EUCAST Interpretation: Cd EUCAST 2011; for Diameter: Table G1; for Results: Table G1, against Dmin-Dmax; for diameter in mm: Table G2
Protocol: as §2

[5] = tested on: EcR1: Penicillinase-Producing Escherichia coli without Associated Resistance; assay: Antibiogram, MIC by the VITEK 2 system; details: for CA-SFM Interpretation: EcR1, MIC against Cc CA-SFM 2011; for CLSI Interpretation: EcR1, MIC against Cc CLSI 2011; for EUCAST Interpretation: EcR1, MIC against Cc EUCAST 2011; for Results: EcR1, interpretation of the MIC, Table A1; for MIC: Escherichia coli
Protocol: (§3) 5.1 EcR1: Penicillinase-Producing Escherichia coli without Associated Resistance The bacterial and antibiogramidentification is carried out by the VITEK 2 system (bioMérieux) and by the disk diffusion technique.

[6] = tested on: PaR3: Pseudomonas aeruginosa; assay: Antibiogram, MIC by the VITEK 2 system; details: for CA-SFM Interpretation: Cc CA-SFM 2011; for CLSI Interpretation: Cc CLSI 2011; for EUCAST Interpretation: Cc EUCAST 2011
Protocol: (§4) The bacterial and antibiogramidentification is carried out by the VITEK 2 system (bioMérieux)

[7] = tested on: Escherichia coli, Staphylococcus aureus and Pseudomonas aeruginosa strains; assay: Chessboard technique, summary statements over all strains and combinations tested; details: strain not stated
Excerpt: 1.3. Procedure: Chessboard Technique
The same procedure is followed for the Cx1. […] Thus 64 ATB/Cx1 combinations are obtained.
The FIC (Fractional Inhibitory Concentration Index) value is defined by the following formula: […]
When FIC≦0.5, there is a synergistic effect between antibiotic A and antibiotic B.
When 0.5<FIC≦1, there is an additive effect between antibiotic A and antibiotic B.
When 1<FIC≦4, there is an indifferent effect between antibiotic A and antibiotic B.
When FIC>4, there is an antagonistic effect between antibiotic A and antibiotic B.
For each strain and each antibiotic/Cx1 combination, the experiments were repeated a minimum of 3 times.

[8] = tested on: Pseudomonas aeruginosa strain ATCC 27853 (wild type); assay: MIC of the compounds used alone, microdilution in a liquid medium (CLSI); details: Pseudomonas aeruginosa, ATCC27853; antibiotic alone (second value of cell); P. aeruginosa ATCC 27853; read-out: MIC
Excerpt: as §1

[9] = tested on: mucoid strain of Pseudomonas aeruginosa PaR5; assay: as above; details: Pseudomonas aeruginosa, antibiotic alone (second value of cell), read-out: MIC
Excerpt: as §1

[10] = tested on: Pseudomonas aeruginosa strain PaR3; assay: as above; details: Pseudomonas aeruginosa, antibiotic alone (second value of cell), read-out: MIC
Excerpt: as §1

[11] = tested on: ESBL-producing strain of Escherichia coli, having an associated resistance to the aminoglycosides (EcR3); assay: as above; details: Escherichia coli, antibiotic alone (second value of cell), read-out: Initial MICs
Excerpt: as §1

[12] = tested on: Escherichia coli strain ATCC 25922 (wild type); assay: as above; details: Escherichia coli, ATCC25922; antibiotic alone (second value of cell); E. coli ATCC 25922; read-out: Initial MICs
Excerpt: as §1

[13] = tested on: cephalosporinase-hyperproducing strain of Escherichia coli (EcR2); assay: as above; details: Escherichia coli, antibiotic alone (second value of cell), read-out: Initial MICs
Excerpt: as §1

[14] = tested on: penicillinase-producing strain of Escherichia coli without associated resistance (EcR1); assay: as above; details: Escherichia coli, antibiotic alone (second value of cell), read-out: Initial MICs
Excerpt: as §1

[15] = tested on: SaR4: Meticillin-Resistant Staphylococcus aureus; assay: Antibiogram by the disk diffusion technique
Protocol: as §2

[16] = tested on: SaR3: Meticillin-Resistant Staphylococcus aureus; assay: Antibiogram by the disk diffusion technique
Protocol: as §2

[17] = tested on: EcR1: Penicillinase-Producing Escherichia coli without Associated Resistance; assay: Antibiogram by the disk diffusion technique; details: Table A1
Protocol: as §3

[18] = tested on: SaR1: Meticillin-Resistant Staphylococcus aureus without Associated Resistance; assay: Antibiogram, inhibition diameter (Table D1)
Protocol: as §4

[19] = tested on: SaR1: Meticillin-Resistant Staphylococcus aureus without Associated Resistance; assay: Antibiogram, MIC by the VITEK 2 system; details: SaR1
Protocol: as §4

[20] = tested on: EcR3: ESBL-Producing Escherichia coli; assay: Antibiogram by the disk diffusion technique
Protocol: The bacterial and antibiogramidentification is carried out by the VITEK 2 system (bioMerieux) and by the disk diffusion technique

[21] = EcR1, Table A2, read-out: MIC mg/L (diameter in mm)
[22] = EcR1, VITEK 2, Table A1, read-out: MIC
[23] = Pseudomonas aeruginosa, Table H2, read-out: MIC

CC(C)(O/N=C(\C(=O)N[C@@H]1C(=O)N2C(C(=O)[O-])=C(C[n+]3ccccc3)CS[C@H]12)c1csc(N)n1)C(=O)O [Ceftazidime]
MIC [1]: 8 µg/mL (≈ 14.6 µM) | Diameter [2]: 32 mm | Results [2]: Susceptible | diameter in mm [2]: 32 mm | CA-SFM Interpretation [2]: Susceptible | CLSI Interpretation [2]: Susceptible | EUCAST Interpretation [2]: Susceptible | Diameter ([3]; EcR2, disk diffusion, Table B1): 20 | Results ([3]; Table B1): Intermediate | Diameter ([3]; EcR2, Table B2, diameters): 20 mm | CA-SFM Interpretation ([3]; EcR2): Resistant | CLSI Interpretation ([3]; EcR2): Intermediate | EUCAST Interpretation ([3]; EcR2): Intermediate | CA-SFM Interpretation [4]: Susceptible | CLSI Interpretation [4]: Susceptible | EUCAST Interpretation [4]: Susceptible | Diameter [4]: 23 mm | Results [4]: Susceptible | diameter in mm [4]: 23 mm | CA-SFM Interpretation [5]: Susceptible | CLSI Interpretation [5]: Susceptible | EUCAST Interpretation [5]: Susceptible | Results [5]: Susceptible | MIC [5, 21]: ≤ 1 mg/L | MIC [5, 22]: ≤ 1 mg/L | CA-SFM Interpretation [6]: Susceptible | CLSI Interpretation [6]: Susceptible | EUCAST Interpretation [6]: Susceptible | MIC [6, 23]: 4 µg/mL (≈ 7.32 µM) | MIC ([6]; Table H1): 4 µg/mL (≈ 7.32 µM) | Results ([6]; Table H1): Susceptible | interaction between the antibiotic and Cx1 [7]: synergism | MIC [8]: 4 µg/mL | MIC [9]: 8 µg/mL | MIC [10]: 16 µg/mL | MIC [11]: 1 µg/mL | MIC [12]: 0.125 µg/mL | MIC [13]: 8 µg/mL | MIC [14]: 0.25 µg/mL

NC[C@H]1O[C@H](O[C@H]2[C@H](O)[C@@H](O[C@H]3O[C@H](CO)[C@@H](O)[C@H](N)[C@H]3O)[C@H](N)C[C@@H]2N)[C@H](N)C[C@@H]1O [Tobramycin]
MIC [1]: 1 µg/mL (≈ 2.14 µM) | Diameter ([15]; Table F1): 6 | Results ([15]; Table F1, rows with a diameter): Resistant | Diameter ([15]; Table F2, diameters): 6 mm | CA-SFM Interpretation ([15]; from diameter, CA-SFM 2011): Resistant | CLSI Interpretation ([15]; from diameter, CLSI 2011): Resistant | EUCAST Interpretation ([15]; from diameter, EUCAST 2011): Resistant | Diameter [2]: 28 mm | Results [2]: Susceptible | diameter in mm [2]: 28 mm | CA-SFM Interpretation [2]: Susceptible | CLSI Interpretation [2]: Susceptible | EUCAST Interpretation [2]: Susceptible | CA-SFM Interpretation ([16]; Cd CA-SFM 2011): Resistant | CLSI Interpretation ([16]; Cd CLSI 2011): Resistant | EUCAST Interpretation ([16]; Cd EUCAST 2011): Resistant | Diameter ([16]; Table E1): 6 mm | Results ([16]; Table E1, against Dmin Dmax): Resistant | diameter in mm ([16]; Table E2): 6 mm | Diameter ([3]; EcR2, disk diffusion, Table B1): 10 | Results ([3]; Table B1): Resistant | Diameter ([3]; EcR2, Table B2, diameters): 10 mm | CA-SFM Interpretation ([3]; EcR2): Resistant | CLSI Interpretation ([3]; EcR2): Resistant | EUCAST Interpretation ([3]; EcR2): Resistant | CA-SFM Interpretation [4]: Susceptible | CLSI Interpretation [4]: Susceptible | EUCAST Interpretation [4]: Susceptible | Diameter [4]: 24 mm | Results [4]: Susceptible | diameter in mm [4]: 24 mm | Diameter ([17]; EcR1, disk diffusion): 19 mm | Results ([17]; EcR1, interpretation of the diameter against Dmin Dmax): Susceptible | Diameter [18]: 22 mm | Results ([18]; from diameter, against Dmin Dmax): Susceptible | CA-SFM Interpretation [5]: Susceptible | CLSI Interpretation [5]: Susceptible | EUCAST Interpretation [5]: Susceptible | Results [5]: Susceptible | MIC [5, 21]: ≤ 1 mg/L | MIC [5, 22]: ≤ 1 mg/L | CA-SFM Interpretation ([19]; Cc CA-SFM 2011): Susceptible | CLSI Interpretation ([19]; Cc CLSI 2011): Susceptible | EUCAST Interpretation ([19]; Cc EUCAST 2011): Susceptible | Results ([19]; Table D1, from MIC): Susceptible | MIC mg/L ([19]; Table D2): ≦1 mg/L | MIC ([19]; Staphylococcus aureus, Table D1, read-out: MIC): ≤ 1 µg/mL | CA-SFM Interpretation [6]: Resistant | CLSI Interpretation [6]: Resistant | EUCAST Interpretation [6]: Resistant | MIC [6, 23]: ≥ 16 µg/mL | MIC ([6]; Table H1): ≧16 | Results ([6]; Table H1): Resistant | CA-SFM Interpretation ([20]; Cd CA-SFM 2011): Resistant | CLSI Interpretation ([20]; Cd CLSI 2011): Resistant | EUCAST Interpretation ([20]; Cd EUCAST 2011): Resistant | Diameter ([20]; Table C1): 6 mm | Results ([20]; Table C1, against Dmin Dmax): Resistant | diameter in mm ([20]; Table C2): 6 mm | interaction between the antibiotic and Cx1 [7]: synergism | MIC [8]: 0.5 µg/mL | MIC [9]: 1 µg/mL | MIC [10]: 64 µg/mL | MIC [11]: 4 µg/mL | MIC [12]: 0.25 µg/mL | MIC [13]: 4 µg/mL | MIC [14]: 0.25 µg/mL
